Experiments:
FXR receptor = biological target: T1, FXR receptor (Homo sapiens, UniProt Q96RI1); assay: In vitro FXR activity, PathHunter enzyme fragment complementation assay in CHO cells; assay type: cell-based; conditions: for EC50: CHO PathHunter cells, ten-point dose curve, chemiluminescence; for Emax: CHO, read-out: Max Response (%)
T1 construct: beta-galactosidase enzyme fragment (EFC/PathHunter); expressed in transfected cells; host or cells: Chinese Hamster Ovary (CHO) cells, stably transfected, clonally derived
T1 sequence (Q96RI1 1-486): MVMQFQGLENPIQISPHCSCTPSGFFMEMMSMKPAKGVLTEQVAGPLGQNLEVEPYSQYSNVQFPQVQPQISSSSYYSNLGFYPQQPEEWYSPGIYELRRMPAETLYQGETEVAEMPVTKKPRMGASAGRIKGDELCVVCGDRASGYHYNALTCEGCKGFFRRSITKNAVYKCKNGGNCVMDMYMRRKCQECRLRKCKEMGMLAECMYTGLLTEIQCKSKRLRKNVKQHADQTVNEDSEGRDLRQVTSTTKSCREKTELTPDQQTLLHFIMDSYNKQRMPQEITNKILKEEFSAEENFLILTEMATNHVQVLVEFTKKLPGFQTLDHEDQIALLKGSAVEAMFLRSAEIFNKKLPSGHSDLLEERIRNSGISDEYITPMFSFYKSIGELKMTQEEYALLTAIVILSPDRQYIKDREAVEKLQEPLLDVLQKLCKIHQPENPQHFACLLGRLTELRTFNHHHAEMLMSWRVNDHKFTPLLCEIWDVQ
Method: Cells were seeded in cell plating reagent in a total volume of 20 μL into 384-well microplates and incubated at 37° C., 5% CO2 humidified incubator for 24 or 48 hours prior to testing. FXR agonists were dissolved in DMSO (dimethyl sulfoxide). Ligands were subsequently diluted in the cell plating reagent to make up desired concentration stock solution. Ten-point dose curve serial dilutions were prepared in cell plating reagent. 5 μL of 5× sample was added to cells and incubated at 37° C. or room temperature for 3-16 hours. Final assay vehicle concentration was 1%. Chemiluminescent signals were generated through addition of 12.5 μL or 15 μL of detection reagent cocktail ([…]), followed by incubation at room temperature for 1 hour. Microplates were read for signal generation using a PerkinElmer Envision instrument to detect chemiluminescence. The percentage activity was calculated using the following formula: % Activity=100%×(mean RLU of test sample−mean RLU of vehicle control)/(mean MAX control ligand−mean RLU of vehicle control).

diet-induced NASH mice [1] = assay: Example 6: diet-induced (GAN diet) NASH mice, FXR agonists alone; assay type: in vivo; conditions: 10 mg/kg; for blood glucose level compared to vehicle: FIG. 2; for plasma triglyceride (TG) levels compared to vehicle: as early as seven days, FIG. 3; for total liver triglycerides: over the course of the study, FIG. 4; for relative terminal body weight compared to vehicle: study day 21, FIG. 1; for liver TG lowering compared to tropifexor: II-1 p<0.05, II-2 p<0.01
Method: NASH was induced in mice by feeding mice a Gubra amylin NASH (GAN) diet as described in Boland et al. World J Gastroenterol. 2019, 25(33): 4904-4920. One week prior to administration of a first dose of compounds, the mice were weighed and randomized, and their food intake was measured. Mice were randomly assigned to dosing groups, with 12 mice per group. Assigned dosages were: Compound II-1 (10 mg/kg); Compound II-2 (10 mg/kg) One group was mock treated with vehicle only as a control. Dosage of Compound II-1 and Compound II-2 were titrated over 3 days, with a dosage of 3 mg/kg administered on days 0, 1 and 2. Dosage of tropifexor was titrated over 2 days, with a dosage of 0.1 mg/kg administered on days 0 and 1. Absolute and relative body weight of the mice were recorded daily.
(§1) Fed blood glucose and fed plasma levels of alanine transaminase (ALT) aspartate transaminase (AST), triglycerides (TG), and total cholesterol (TC) were measured at days 7, 14, 21.
(§2) After 8 weeks, animals were sacrificed. Plasma enzymes (P-ALT (alanine aminotransferase) and P-AST (aspartate aminotransferase)), total plasma triglycerides, and total plasma cholesterol were measured, and terminal necropsy of each liver was carried out, determining relative liver weight as a percentage of body weight, assaying total liver biochemistry including total liver triglycerides, plasma insulin and total liver cholesterol, as well as histological evaluation of total liver hydroxyproline, and steatosis. Tissue samples were preserved for characterization using RNAseq.

diet-induced NASH mice [2] = assay: Example 7: diet-induced (GAN diet) NASH mice, Compound 2, FXR agonists and combinations; assay type: in vivo; conditions: for blood glucose level compared to vehicle: FIG. 6; for liver TG levels at the termination of the study: FIG. 8; for plasma triglyceride (TG) levels: as early as seven days, FIG. 7; for plasma TG levels compared to vehicle: day 21, FIG. 11; for total liver triglycerides compared to tropifexor: day 21, FIG. 12; for relative terminal body weight compared to vehicle: study day 21, FIG. 5; for plasma insulin level, significance compared to vehicle / plasma insulin levels compared to vehicle alone and to Compound 2: study day 21, FIG. 9; for plasma ALT level compared to vehicle alone / plasma ALT levels compared to tropifexor: study day 21, FIG. 10
Method: NASH was induced in mice by feeding mice a Gubra amylin NASH (GAN) diet as described in Boland et al. World J Gastroenterol. 2019, 25(33): 4904-4920. One week prior to administration of a first dose of compounds, the mice were weighed and randomized, and their food intake was measured. Mice were randomly assigned to dosing groups, with 12 mice per group. Assigned dosages included the following; Compound 2 (10 mg/kg); tropifexor (0.3 mg/kg); Compound 2 (10 mg/kg)+tropifexor (0.3 mg/kg); Compound II-1 (10 mg/kg); Compound 2 (10 mg/kg)+Compound II-1 (30 mg/kg); Compound II-2 (10 mg/kg); and Compound 2 (10 mg/kg)+Compound II-2 (30 mg/kg). One group was mock treated with vehicle only as a control. Dosage of Compound II-1 and Compound II-2 were titrated over 6 days, with a dosage of 3 mg/kg administered on days 0, 1 and 2 and a dosage of 10 mg/kg administered on days 3, 4, and 5. Absolute and relative body weight of the mice were recorded daily.
as §1
as §2, with “3” for “8”

[3] = % Activity relative to MAX control ligand

Max Response (%) (FXR receptor; [3]) | SMILES | EC50 (FXR receptor) | blood glucose level compared to vehicle (diet-induced NASH mice [1]) | plasma triglyceride (TG) levels compared to vehicle (diet-induced NASH mice [1]) | total liver triglycerides (diet-induced NASH mice [1]) | relative terminal body weight compared to vehicle (diet-induced NASH mice [1]) | liver TG lowering compared to tropifexor (diet-induced NASH mice [1]) | plasma TG lowering compared to tropifexor (diet-induced NASH mice [1]; p<0.05) | blood glucose level compared to vehicle (diet-induced NASH mice [2]) | liver TG levels at the termination of the study (diet-induced NASH mice [2]) | plasma triglyceride (TG) levels (diet-induced NASH mice [2]) | plasma TG levels compared to vehicle (diet-induced NASH mice [2]) | total liver triglycerides compared to tropifexor (diet-induced NASH mice [2]) | relative terminal body weight compared to vehicle (diet-induced NASH mice [2]) | plasma insulin level, significance compared to vehicle (diet-induced NASH mice [2]) | plasma insulin levels compared to vehicle alone and to Compound 2 (diet-induced NASH mice [2]) | plasma ALT level compared to vehicle alone (diet-induced NASH mice [2]) | plasma ALT levels compared to tropifexor (diet-induced NASH mice [2]) | Emax (FXR receptor; [3])
90% | CP(=O)(O)c1cc(F)c2nc(N3[C@@H]4CC[C@H]3CC(OCc3c(-c5ccccc5OC(F)(F)F)noc3C3CC3)C4)sc2c1 (stereo partly drawn) [Compound II-2] | 3.08 µM | lower blood glucose level | significantly reduced | similarly decreased | lower relative terminal body weight | greater efficacy in lowering liver TG levels | greater efficacy in lowering plasma TG levels | lower blood glucose level | lowered liver TG levels | significantly reduced | significant reduction of plasma TG levels | reduced total liver triglycerides than tropifexor | lower relative terminal body weight | statistically significant reduction of plasma insulin level | lower insulin levels | lower plasma ALT level | lower plasma ALT levels | –
– | Oc1cc(-c2cc(F)c3nc(N4[C@@H]5CC[C@H]4CC(OCc4c(-c6ccccc6OC(F)(F)F)noc4C4CC4)C5)sc3c2)no1 (stereo partly drawn) [Compound II-4, 3-(2-((1R,5S)-3-((5-cyclopropyl-3-(2-(trifluoromethoxy)phenyl)isoxazol-4-yl)methoxy)-8-azabicyclo[3.2.1]octan-8-yl)-4-fluorobenzo[d]thiazol-6-yl)isoxazol-5-ol] | 0.0811 µM | – | – | – | – | – | – | – | – | – | significant reduction of plasma TG levels | reduced total liver triglycerides than tropifexor | – | – | lower insulin levels | lower plasma ALT level | lower plasma ALT levels | 159%
– | O=P(O)(O)c1cc(F)c2nc(N3[C@@H]4CC[C@H]3CC(OCc3c(-c5ccccc5OC(F)(F)F)noc3C3CC3)C4)sc2c1 (stereo partly drawn) [Compound II-1, (2-((1R,5S)-3-((5-cyclopropyl-3-(2-(trifluoromethoxy)phenyl)isoxazol-4-yl)methoxy)-8-azabicyclo[3.2.1]octan-8-yl)-4-fluorobenzo[d]thiazol-6-yl)phosphonic acid] | 2.86 µM | lower blood glucose level | significantly reduced | similarly decreased | lower relative terminal body weight | greater efficacy in lowering liver TG levels | – | lower blood glucose level | lowered liver TG levels | significantly reduced | significant reduction of plasma TG levels | reduced total liver triglycerides than tropifexor | lower relative terminal body weight | statistically significant reduction of plasma insulin level | lower insulin levels | lower plasma ALT level | lower plasma ALT levels | 52%
– | Oc1cc(-c2cc(F)c3nc(N4[C@@H]5CC[C@H]4CC(OCc4c(-c6ccccc6OC(F)(F)F)noc4C4CC4)C5)sc3c2)on1 (stereo partly drawn) [Compound II-3, 5-(2-((1R,5S)-3-((5-cyclopropyl-3-(2-(trifluoromethoxy)phenyl)isoxazol-4-yl)methoxy)-8-azabicyclo[3.2.1]octan-8-yl)-4-fluorobenzo[d]thiazol-6-yl)isoxazol-3-ol] | 0.0246 µM | – | – | – | – | – | – | – | – | – | significant reduction of plasma TG levels | reduced total liver triglycerides than tropifexor | – | statistically significant reduction of plasma insulin level | lower insulin levels | lower plasma ALT level | lower plasma ALT levels | 151%
– | Cc1cc(OCP2(=O)OCC[C@@H](c3cccc(Cl)c3)O2)cc(C)c1Cc1ccc(O)c(C(C)C)c1 (stereo partly drawn) [Compound 2] | – | – | – | – | – | – | – | lower blood glucose level | lowered liver TG levels | significantly reduced | – | – | lower relative terminal body weight | – | – | – | – | –
